Results as given in patent US20260240846A1, “ZAK ALPHA KINASE (MAP3K20) INHIBITORS FOR USE IN THE TREATMENT OF ANEMIA” (UNIVERSIDAD DE MURCIA, priority 2023, published 2026).

Legend:
[1] = tested on: primary CD34+/CD133+ HSPCs from healthy donors; experiment: Erythroid differentiation of primary CD34+/CD133+ HSPCs with EPO (flow cytometry CD235a/CD71); assay type: cell-based, human; conditions: 0.1 μM nilotinib from 3 to 7 d or 7 to 10 d of culture
Method: (§1) FIG. 8. Nilotinib promotes erythropoiesis of primary CD34^+/CD133^+ HSPCs from healthy donors. (A) Primary human CD34^+/CD133^+ cells were differentiated with erythropoietin (EPO) and 0.1 μM nilotinib was added from 3 to 7 d of culture and the number of life cells calculated by the trypan blue exclusion assay. (B, C) Cells were stained with anti-CD235a-APC and anti-CD71-FITC, and erythroid differentiation was then analyzed by flow cytometry. Representative dot plots at different differentiation times (B) and overlapped histogram of CD235a at 7 d and the mean fluorescence intensity (MFI) at different differentiation times (C) are shown.
as §1, with “FIG. 9.” for “FIG. 8.”, “with EPO” for “with erythropoietin (EPO)”, “from 7” for “from 3”, “to 10” for “to 7”, “at 10” for “at 7”, “shown. […]” for “shown.”

K562 cells = experiment: Erythroid differentiation assay in K562 cells (hemin; hemoglobin accumulation, western blot); assay type: cell-based, human
Method: FIG. 1. ZAKα/P38 signaling pathway is activated in K562 after erythroid differentiation and its inhibition facilitates terminal erythroid differentiation. K562 cells were pre-treated with 0.1 μM nilotinib (Nil) (A, C, D), 1 μM anisomycin (B) and/or the indicated concentrations of the […] CX-5461 for 24 h, and then differentiated with 50 μM hemin for another 24 h. Hemoglobin accumulation (A, B, D) and NLRP1, phosphorylated P38, GATA1, ZAKα and ACTB (A-C) amounts were then evaluated by western blot. Immunoblots are representative of 3 independent experiments. #1, ACTB; #2, GATA1.
FIG. 2. The ZAKα/P38 signaling pathways is activated in K562 after erythroid differentiation. K562 cells were pre-treated with 0.1 μM nilotinib for 24 h and then differentiated with 50 μM hemin for the indicated times. The amounts of NLRP1, GATA1, phosphorylated P38, total ZAKα, phosphorylated ZAKα (Phos-tag) and ACTB were then evaluated by western blot.
FIG. 10. Imatinib and dasatinib promote erythropoiesis in human and zebrafish. (A) K562 cells were pretreated with the indicated concentrations of nilotinib, imatinib or dasatinib for 24 h and then differentiated with 50 μM hemin for 24 h. The amounts of NLRP1, GATA1, phosphorylated P38, total ZAKα and ACTB were then evaluated by western blot. (B) Zebrafish larvae were treated from 1 to 2 dpf with the indicated concentrations of nilotinib, imatinib or dasatinib. Representative images and number of neutrophils in larvae of 2 dpf treated by bath immersion with the indicated concentrations of imatinib and dasatinib. Each dot represents one individual and the mean±SEM for each group is also shown. P values were calculated by one-way ANOVA and Tukey's multiple range test. n.s., non-significant. ***P<0.001; ****P<0.0001.
FIG. 11. Ponatinib and bosutinib promote erythropoiesis in human and zebrafish. (A) K562 cells were pretreated with the indicated concentrations of nilotinib, ponatinib and bosutinib for 24 h and then differentiated with 50 μM hemin for the indicated times. The amounts of NLRP1, total ZAKα, GATA1, phosphorylated P38 and ACTB were then evaluated by western blot. (B) Number of neutrophils in larvae of 2 dpf treated by bath immersion with the indicated concentrations of ponatinib and bosutinib. Each dot represents one individual and the mean±SEM for each group is also shown. P values were calculated by one-way ANOVA and Tukey's multiple range test. n.s., non-significant, *P<0.05. **P<0.01. ***P<0.001.
K562 cells (CRL-3343; American Type Culture Collection) were maintained in RPMI culture medium supplemented with 10% fetal calf serum (FCS), 2 mM Glutamine, and 1% penicillin-streptomycin (Life Technologies). Cells were maintained and subcultured before confluence every 72 h. For differentiation, cells were treated with 50 μM hemin (#16009-13-5, Sigma-Aldrich) in the presence of 0.1% DMSO alone or with the caspase-1 inhibitor VX-765 (100 μM), the tyrosine kinase inhibitor nilotinib (0.1 μM), the RNA polymerase I inhibitor CX-5461 (200 nM, 1 μM and 10 μM) (all from MedChemExpress). Cells were collected at different time points (0, 24, 48 hours post-hemin addition), centrifuged, washed twice with PBS, and stored at −80° C. for further analysis.
Cells were lysed in 50 mM Tris-HCl (pH 7.5), 150 mM NaCl, 1% (w/v) NP-40 and fresh protease inhibitor (1/20, #P8340, Sigma-Aldrich). Protein quantification was performed with the BCA kit using BSA as standard. Cell lysates ([…]) in SDS sample buffer were subjected to electrophoresis on a polyacrylamide gel and transferred to nitrocellulose membranes. The membranes were incubated for 1 h with TTBS containing 5% (w/v) skimmed dried milk powder or 2% (w/v) BSA. The membranes were immunoblotted in the same buffer 16 h at 4° C. with the different primary antibodies diluted 1/1000. The blots were then washed with TTBS and incubated for 1 h at room temperature with secondary HRP-conjugated antibodies diluted 2,500-fold in 5% (w/v) skimmed milk in TTBS. […]

[2] = K562 cells, 0.1 μM nilotinib 24 h, then 50 μM hemin, western blot

Cc1cn(-c2cc(NC(=O)c3ccc(C)c(Nc4nccc(-c5cccnc5)n4)c3)cc(C(F)(F)F)c2)cn1 [nilotinib]
erythropoiesis of primary CD34+/CD133+ HSPCs [1]: accelerated erythropoiesis | erythroid differentiation of K562 (K562 cells; 0.1 μM nilotinib 24 h, with or without 50 μM hemin 24 h (FIG. 1A)): strongly promoted erythroid differentiation of K562, even in the absence of hemin | haemoglobin accumulation (K562 cells; K562 cells, 0.1 μM nilotinib 24 h, then 50 μM hemin 24 h): increase in haemoglobin accumulation | hemin-induced phosphorylation of ZAKα (K562 cells; K562 cells, 0.1 μM nilotinib 24 h, then 50 μM hemin, Phos-tag western blot): strongly reversed | hemin-induced degradation of GATA1 (K562 cells; [2]): strongly reversed | hemin-induced phosphorylation of P38 (K562 cells; [2]): strongly reversed | expression of GATA1 (K562 cells; K562 cells, 0.1 μM nilotinib (FIGS. 1A and 2)): increased expression of GATA1 | accumulation of GATA1 in the presence of CX-5461 (K562 cells; K562 cells, 0.1 μM nilotinib plus CX-5461 24 h, then 50 μM hemin 24 h (FIG. 1C)): able to promote accumulation of GATA1 | abundance of ZAK alpha, phosphorylated ZAKα and P38, and NLRP1 (K562 cells; K562 cells, basal conditions, upon hemin-induced erythroid differentiation and upon anisomycin): Alter the abundance
